Measurements reported in ChEMBL document CHEMBL1909046, “DrugMatrix in vitro pharmacology data”.

Experiments:
[1] = DRUGMATRIX: Nicotinic Acetylcholine radioligand binding (ligand: [125I] Epibatidine); format: cell membranes, Membrane; details: imr-32; Not Active = under 50% inhibition at 10 µM
[2] = target: T1, Neuropeptide Y receptor type 1 (Homo sapiens, UniProt P25929); format: cell membranes, Membrane; details: sk-n-mc; also: in other assays of this panel Not Active means under 50% inhibition at 10 µM
T1 sequence (P25929 whole entry): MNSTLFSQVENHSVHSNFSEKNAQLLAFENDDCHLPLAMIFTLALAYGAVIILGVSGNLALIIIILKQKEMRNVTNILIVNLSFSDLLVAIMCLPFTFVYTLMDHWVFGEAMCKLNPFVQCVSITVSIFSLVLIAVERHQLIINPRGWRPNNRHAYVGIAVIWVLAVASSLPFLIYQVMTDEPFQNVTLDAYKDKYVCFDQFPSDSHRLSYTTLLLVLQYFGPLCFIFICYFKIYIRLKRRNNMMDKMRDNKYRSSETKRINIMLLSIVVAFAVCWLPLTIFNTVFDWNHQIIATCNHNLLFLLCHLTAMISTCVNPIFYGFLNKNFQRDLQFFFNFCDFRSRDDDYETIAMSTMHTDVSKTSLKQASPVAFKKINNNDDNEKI

Adenosine receptor A1 = target: T2, Adenosine receptor A1 (Homo sapiens, UniProt P30542); format: cell membranes, CHO, Membrane; details: cho;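 also: radioligand binding assay at the adenosine A1 receptor, with DPCPX serving as the labelled ligand; in other assays of this panel Not Active means under 50% inhibition at 10 µM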
T2 sequence (P30542 whole entry): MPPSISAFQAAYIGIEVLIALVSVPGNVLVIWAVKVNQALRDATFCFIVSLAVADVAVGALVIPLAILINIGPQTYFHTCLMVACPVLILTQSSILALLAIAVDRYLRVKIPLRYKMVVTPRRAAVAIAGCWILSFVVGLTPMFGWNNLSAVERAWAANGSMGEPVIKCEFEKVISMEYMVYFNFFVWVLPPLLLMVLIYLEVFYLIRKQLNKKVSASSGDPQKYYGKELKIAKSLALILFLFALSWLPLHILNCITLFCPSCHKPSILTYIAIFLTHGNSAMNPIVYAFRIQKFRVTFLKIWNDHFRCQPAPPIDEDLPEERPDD

Cytochrome P450 2D6 = Cytochrome P450 2D6 (Homo sapiens, UniProt P10635); details: bti-tn-5b1-4; also: in other assays of this panel Not Active means under 50% inhibition at 10 µM
Sequence of Cytochrome P450 2D6 (P10635 whole entry): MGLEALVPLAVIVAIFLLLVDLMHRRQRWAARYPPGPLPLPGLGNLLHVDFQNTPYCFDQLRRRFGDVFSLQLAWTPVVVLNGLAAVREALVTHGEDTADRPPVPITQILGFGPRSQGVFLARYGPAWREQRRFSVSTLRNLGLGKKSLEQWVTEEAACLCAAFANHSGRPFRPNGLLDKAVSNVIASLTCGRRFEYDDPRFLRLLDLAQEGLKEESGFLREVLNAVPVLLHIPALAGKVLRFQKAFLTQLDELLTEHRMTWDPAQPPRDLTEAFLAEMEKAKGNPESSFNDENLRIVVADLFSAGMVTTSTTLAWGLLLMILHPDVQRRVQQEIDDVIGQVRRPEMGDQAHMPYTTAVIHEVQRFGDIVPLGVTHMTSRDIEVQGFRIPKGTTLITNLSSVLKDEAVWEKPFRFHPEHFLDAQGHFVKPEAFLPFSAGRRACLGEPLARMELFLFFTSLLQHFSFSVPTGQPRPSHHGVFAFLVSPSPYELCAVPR

[3] = DRUGMATRIX: Tumor Necrosis Factor (TNF), Non-Selective radioligand binding (ligand: [125I] TNF-alpha); format: cell membranes, Membrane; details: u-937; Not Active = under 50% inhibition at 10 µM
[4] = DRUGMATRIX: Glutamate, NMDA, Phencyclidine radioligand binding (ligand: [3H] TCP); format: cell membranes, Rattus norvegicus, Wistar, Cerebral cortex, Membrane; details: Not Active = under 50% inhibition at 10 µM
[5] = target: T3, 3-hydroxy-3-methylglutaryl-coenzyme A reductase (Homo sapiens, UniProt P04035); parameters: species or system Escherichia coli;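 also: enzyme inhibition assay of HMG-CoA reductase using radiolabeled [14C]HMG-CoA as substrate; in other assays of this panel Not Active means under 50% inhibition at 10 µM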
T3 sequence (P04035 whole entry): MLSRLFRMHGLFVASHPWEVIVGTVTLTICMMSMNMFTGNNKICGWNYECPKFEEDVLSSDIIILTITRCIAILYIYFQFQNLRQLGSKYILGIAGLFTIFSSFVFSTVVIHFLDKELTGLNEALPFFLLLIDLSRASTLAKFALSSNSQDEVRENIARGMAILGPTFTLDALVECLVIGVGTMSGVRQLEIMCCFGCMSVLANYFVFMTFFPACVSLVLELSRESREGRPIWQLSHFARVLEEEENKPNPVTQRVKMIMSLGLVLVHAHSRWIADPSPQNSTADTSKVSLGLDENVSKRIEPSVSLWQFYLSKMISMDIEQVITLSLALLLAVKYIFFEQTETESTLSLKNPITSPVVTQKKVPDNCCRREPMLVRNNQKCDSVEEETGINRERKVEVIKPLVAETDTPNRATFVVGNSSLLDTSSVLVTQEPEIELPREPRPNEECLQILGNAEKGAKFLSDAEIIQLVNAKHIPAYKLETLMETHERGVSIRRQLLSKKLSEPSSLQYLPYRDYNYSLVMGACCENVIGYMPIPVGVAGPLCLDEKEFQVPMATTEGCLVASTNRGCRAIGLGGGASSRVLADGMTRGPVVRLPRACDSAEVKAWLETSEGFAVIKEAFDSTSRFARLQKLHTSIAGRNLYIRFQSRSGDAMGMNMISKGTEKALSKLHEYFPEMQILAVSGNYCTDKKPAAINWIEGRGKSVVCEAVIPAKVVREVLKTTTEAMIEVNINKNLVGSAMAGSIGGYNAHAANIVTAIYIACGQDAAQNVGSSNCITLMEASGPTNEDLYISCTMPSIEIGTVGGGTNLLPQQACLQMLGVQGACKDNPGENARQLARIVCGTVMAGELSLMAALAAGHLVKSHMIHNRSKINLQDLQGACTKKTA

COc1ccc(C2C(=O)c3ccccc3C2=O)cc1 [ANISINDIONE]
Not Active: IC50 [1] | Ki [1] | IC50 [2] | IC50 (Adenosine receptor A1) | IC50 (Cytochrome P450 2D6) | Ki (Cytochrome P450 2D6) | IC50 [3] | Ki [3] | IC50 [4] | Ki [4] | IC50 [5]

CC[C@H](C)[C@H]1O[C@]2(C=C[C@@H]1C)C[C@@H]1C[C@@H](C/C=C(\C)[C@@H](O[C@H]3C[C@H](OC)[C@@H](O[C@H]4C[C@H](OC)[C@@H](O)[C@H](C)O4)[C@H](C)O3)[C@@H](C)/C=C/C=C3\CO[C@@H]4[C@H](O)C(C)=C[C@@H](C(=O)O1)[C@]34O)O2.CO[C@H]1C[C@H](O[C@H]2[C@H](C)O[C@@H](O[C@@H]3/C(C)=C/C[C@@H]4C[C@@H](C[C@]5(C=C[C@H](C)[C@@H](C(C)C)O5)O4)OC(=O)[C@@H]4C=C(C)[C@@H](O)[C@H]5OC/C(=C\C=C\[C@@H]3C)[C@]54O)C[C@@H]2OC)O[C@@H](C)[C@@H]1O [ABAMECTIN]
Not Active: IC50 [1] | Ki [1] | IC50 [2] | IC50 (Adenosine receptor A1) | IC50 (Cytochrome P450 2D6) | Ki (Cytochrome P450 2D6) | IC50 [3] | Ki [3] | IC50 [4] | Ki [4] | IC50 [5]

CN/C(=N\CCSCc1nc[nH]c1C)NC#N [CIMETIDINE]
Not Active: IC50 [1] | Ki [1] | IC50 [2] | IC50 (Adenosine receptor A1) | IC50 (Cytochrome P450 2D6) | Ki (Cytochrome P450 2D6) | IC50 [3] | Ki [3] | IC50 [4] | Ki [4] | IC50 [5]

NYSTATIN
Not Active: IC50 [1] | Ki [1] | IC50 [2] | Ki [2] | IC50 (Adenosine receptor A1) | Ki (Adenosine receptor A1) | IC50 (Cytochrome P450 2D6) | Ki (Cytochrome P450 2D6) | IC50 [3] | Ki [3] | IC50 [4] | Ki [4] | IC50 [5] | Ki [5]

COC(=O)Nc1nc2ccc([S+]([O-])c3ccccc3)cc2[nH]1 (stereo unspecified) [OXFENDAZOLE]
Not Active: IC50 [1] | Ki [1] | IC50 [2] | IC50 (Adenosine receptor A1) | IC50 (Cytochrome P450 2D6) | Ki (Cytochrome P450 2D6) | IC50 [3] | Ki [3] | IC50 [4] | Ki [4] | IC50 [5]

CCC1(C)CC(=O)NC1=O (stereo unspecified) [ETHOSUXIMIDE]
Not Active: IC50 [1] | Ki [1] | IC50 [2] | IC50 (Adenosine receptor A1) | IC50 (Cytochrome P450 2D6) | Ki (Cytochrome P450 2D6) | IC50 [3] | Ki [3] | IC50 [4] | Ki [4] | IC50 [5]

Brc1c(NC2=NCCN2)ccc2nccnc12 [BRIMONIDINE]
Not Active: IC50 [1] | Ki [1] | IC50 [2] | IC50 (Adenosine receptor A1) | IC50 (Cytochrome P450 2D6) | Ki (Cytochrome P450 2D6) | IC50 [3] | Ki [3] | IC50 [4] | Ki [4] | IC50 [5]

CC[C@H]1CN2CCc3cc(OC)c(OC)cc3[C@@H]2C[C@@H]1C[C@H]1NCCc2cc(OC)c(OC)cc21 [EMETINE]
Not Active: IC50 [1] | Ki [1] | IC50 [2] | IC50 (Adenosine receptor A1) | IC50 (Cytochrome P450 2D6) | Ki (Cytochrome P450 2D6) | IC50 [3] | Ki [3] | IC50 [4] | Ki [4] | IC50 [5]

COC(=O)CCc1ccc(OCC(O)CNC(C)C)cc1 (stereo unspecified) [ESMOLOL]
Not Active: IC50 [1] | Ki [1] | IC50 [2] | IC50 (Adenosine receptor A1) | IC50 (Cytochrome P450 2D6) | Ki (Cytochrome P450 2D6) | IC50 [3] | Ki [3] | IC50 [4] | Ki [4] | IC50 [5]

COc1ccc(C(=O)N2CCCC2=O)cc1
Not Active: IC50 [1] | Ki [1] | IC50 [2] | IC50 (Adenosine receptor A1) | IC50 (Cytochrome P450 2D6) | Ki (Cytochrome P450 2D6) | IC50 [3] | Ki [3] | IC50 [4] | Ki [4] | IC50 [5]

O=C(O)CCNC(=O)c1ccccc1 [BETAMIPRON]
Not Active: IC50 [1] | Ki [1] | IC50 [2] | IC50 (Adenosine receptor A1) | IC50 (Cytochrome P450 2D6) | Ki (Cytochrome P450 2D6) | IC50 [3] | Ki [3] | IC50 [4] | Ki [4] | IC50 [5]

O=c1cnn([C@@H]2O[C@H](CO)[C@@H](O)[C@H]2O)c(=O)[nH]1 [6-AZAURIDINE]
Not Active: IC50 [1] | Ki [1] | IC50 [2] | IC50 (Adenosine receptor A1) | IC50 (Cytochrome P450 2D6) | Ki (Cytochrome P450 2D6) | IC50 [3] | Ki [3] | IC50 [4] | Ki [4] | IC50 [5]

C[C@@H]1C[C@H]2[C@@H]3CCC4=CC(=O)C=C[C@]4(C)[C@@]3(F)[C@@H](O)C[C@]2(C)[C@H]1C(=O)CO [DESOXIMETASONE]
Not Active: IC50 [1] | Ki [1] | IC50 [2] | IC50 (Adenosine receptor A1) | IC50 (Cytochrome P450 2D6) | Ki (Cytochrome P450 2D6) | IC50 [3] | Ki [3] | IC50 [4] | Ki [4] | IC50 [5]
